Positions of bridges follow the written chain, without caps; N, C: chain ends. Non-standard residues stand in square brackets, D forms with d. Residues, ends and D or L forms follow the SMILES beside them. *: point of attachment. Trp(1-CH2COOH) = N[C@@H](Cc1cn(CC(=O)O)c2ccccc12)C(=O)O; Hyp = O=C(O)[C@@H]1C[C@@H](O)CN1; X42 = S=C(Nc1ccc2nccnc2c1Br)*; X60 = Cc1cc2cc(NC(=S)*)ccc2o1; NMeNle = CCCC[C@H](NC)C(=O)O; X4 = S=C(Nc1ccc2c(c1)OCCO2)*; NMeA = CN[C@@H](C)C(=O)O; Dab = NCC[C@H](N)C(=O)O; Dap = NC[C@H](N)C(=O)O

For orientation: IC50 means the concentration that inhibits the measured activity by half.

For the test, the target named is T1, PD-1/PD-L1 (Homo sapiens, UniProt Q9NZQ7).
T1 construct: TVMV protease site linker (C); made in house; host or cells: HEK293T cells
T1 sequence (Q9NZQ7 18-239): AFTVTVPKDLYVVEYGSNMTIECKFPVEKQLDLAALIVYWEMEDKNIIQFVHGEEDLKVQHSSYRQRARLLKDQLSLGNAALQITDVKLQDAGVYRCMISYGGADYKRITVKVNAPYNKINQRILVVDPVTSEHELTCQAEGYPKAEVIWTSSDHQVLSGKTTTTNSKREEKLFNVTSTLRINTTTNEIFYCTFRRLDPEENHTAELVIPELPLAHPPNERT
The test can be described thus: PD-1/PD-L1 Homogenous Time-Resolved Fluorescence (HTRF) binding assay. To be noted: PD-L1-His 10 nM pre-incubated with inhibitor, PD-1-Ig 20 nM; read-out: HTRF IC50. In outline: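 Compounds preincubated 15 min with PD-L1-His (10 nM final), then PD-1-Ig (20 nM final) added for 15 min in dPBS with 0.1% BSA, 0.05% Tween-20. Detection by Eu-cryptate anti-Ig (1 nM) and APC anti-His (20 nM) HTRF.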
Take `CCCC[C@H]1C(=O)N(C)[C@@H](CCCC)C(=O)N[C@@H](CC(C)C)C(=O)N[C@H](C(=O)NCC(N)=O)CSCC(=O)N[C@@H](Cc2ccc(O)cc2)C(=O)N(C)[C@@H](C)C(=O)N[C@@H](CC(N)=O)C(=O)N2CCC[C@H]2C(=O)N[C@@H](CNC(=S)Nc2ccc3nccnc3c2Br)C(=O)N[C@@H](CC(C)C)C(=O)N2C[C@H](O)C[C@H]2C(=O)N[C@@H](Cc2c[nH]c3ccccc23)C(=O)N[C@@H](CCNC(=S)Nc2ccc3nccnc3c2Br)C(=O)N[C@@H](Cc2cn(CC(=O)O)c3ccccc23)C(=O)N1C` [Example 3070] ({CH2CO}-Y[NMeA]NP[Dap](X42)L[Hyp]W[Dab](X42)[Trp(1-CH2COOH)][NMeNle][NMeNle]LCG-NH2; thioether N-14): the IC50 was 5.9 nM.
`CCCC[C@H]1C(=O)N(C)[C@@H](CCCC)C(=O)N[C@@H](CC(C)C)C(=O)N[C@H](C(=O)NCC(N)=O)CSCC(=O)N[C@@H](Cc2ccc(O)cc2)C(=O)N(C)[C@@H](C)C(=O)N[C@@H](CC(N)=O)C(=O)N2CCC[C@H]2C(=O)N[C@@H](CNC(=S)Nc2ccc3oc(C)cc3c2)C(=O)N[C@@H](CC(C)C)C(=O)N2C[C@H](O)C[C@H]2C(=O)N[C@@H](Cc2c[nH]c3ccccc23)C(=O)N[C@@H](CCNC(=S)Nc2ccc3oc(C)cc3c2)C(=O)N[C@@H](Cc2cn(CC(=O)O)c3ccccc23)C(=O)N1C` [Example 3072] ({CH2CO}-Y[NMeA]NP[Dap](X60)L[Hyp]W[Dab](X60)[Trp(1-CH2COOH)][NMeNle][NMeNle]LCG-NH2; thioether N-14): the IC50 worked out at 1.5 nM.
Turning to `CCCC[C@H]1C(=O)N(C)[C@@H](CCCC)C(=O)N[C@@H](CC(C)C)C(=O)N[C@H](C(=O)NCC(N)=O)CSCC(=O)N[C@@H](Cc2ccc(O)cc2)C(=O)N(C)[C@@H](C)C(=O)N[C@@H](CC(N)=O)C(=O)N2CCC[C@H]2C(=O)N[C@@H](CNC(=S)Nc2ccc3c(c2)OCCO3)C(=O)N[C@@H](CC(C)C)C(=O)N2C[C@H](O)C[C@H]2C(=O)N[C@@H](Cc2c[nH]c3ccccc23)C(=O)N[C@@H](CCN)C(=O)N[C@@H](Cc2cn(CC(=O)O)c3ccccc23)C(=O)N1C` [Example 3073] ({CH2CO}-Y[NMeA]NP[Dap](X4)L[Hyp]W[Dab][Trp(1-CH2COOH)][NMeNle][NMeNle]LCG-NH2; thioether N-14), the half-inhibitory concentration (IC50) came out at 5 nM.
